Read-outs that look alike come from different tables or passages of the source.
Key:
LCC6 cells = assay: IC50 of anticancer drugs in wild-type LCC6 with or without FM04; format: cell-based, human
Description: Table S1. IC50 of anticancer drugs in LCC6 and LCC6MDR and P-gp modulating activity of FM04.
fold): IC50 of an anticancer drug of LCC6MDR without FM04/IC50 of an anticancer of LCC6 with or without
FM04 or LCC6MDR with FM04. N = 2 - 8 independent experiment. The IC50 values were presented as mean ±
standard error mean. /: not determined.

[1] = Pharmacokinetics of PTX and FM04 after oral co-administration; format: in vivo, Balb/c mice; conditions: mice
Procedure: Pharmacokinetics (PK) study of PTX or FM04 after their oral co-administration. […] PTX (20 or 70 mg/kg) was orally co-administered with FM04 (0, 22 or 45 mg/kg) to mice, plasma was collected at 30, 60, 120, 240 and 420 min, respectively. […] FM04 (45 or 100 mg/kg) was orally co-administered with PTX (0, 50 or 70 mg/kg) to mice, plasma was collected at 30, 60, 120, 240 and 420 min, respectively. The concentration FM04 at each time point was determined by UPLC-MS/MS Pharmacokinetic parameter AUC was calculated by the pharmacokinetic software-Summit® PK solutions 2.0 (Summit Research Service, Ashland, Wilmington, DE, USA).
PTX drug solution was prepared in 5% Cremophor EL, 5% ethanol and 90% saline on the day of the experiment. PTX + FM04 drug solution was prepared in 7% Cremophor EL, 8% ethanol and 85% saline on the day of the experiment. PTX drug solution or PTX + FM04 mixture drug solution was administered to the Balb/c mice (female, 4–6 week-old) via oral gavage. Blood was collected via cardiac puncture at scheduled time points (10, 30, 60, 120, 240 and 420 min) under deep anesthesia. All animals were terminated at the end of the experiment. Plasma concentrations of FM04 and PTX were detected using UPLC-MS/MS. Plasma concentration–time profiles were analyzed by non-compartmental analysis (NCA). The area under the plasma concentration–time curve by trapezoid rules (AUC) (from 0 to infinity), the terminal half-life (t1/2β), initial half-life (t1/2α), mean residence time (MRT), maximum observed concentration (Cmax) and time to maximum concentration (Tmax) were calculated by PK Solutions 2.0 (Summit Research Service, Ashland, Wilmington, DE, USA).
PTX and its internal standard (IS) separation were performed on Agilent 1290 series UPLC coupled with Agilent 6460 Triple quadrupole. The calibration curve of PTX was constructed by quantifying the known amount of PTX that spiked to blank mice plasma following identical sample preparation. The mass spectrometer was configured in ESI + ionization mode monitoring MRM ion transition of m/z 854 > 286 (PTX) and m/z 882 > 314 (IS). Source parameters were as follows, gas temp (350 °C), gas flow (8 L/min), nebulizer (35 psi) and capillary (4000 V). UPLC chromatographic separation was performed on Waters Acquity UPLC BEH C18 (1.7 µM, 2.1 × 50 mm) with a 5 min gradient elution of 30% acetonitrile with 0.1% formic acid to 76% ACN with 0.1% formic acid. Milli-Q with 0.1% formic acid was used as the aqueous phase. Each separation and re-equilibration were completed in 9 min.
Detection and quantification of FM04 and its internal standard were done by using the UPLC-MS/MS system consist of an Acquity Waters UPLC interfaced with a triple quadrupole mass spectrometer (Micromass model Quattro Ultima) equipped with an electrospray ionization source in positive mode. The desolvation temperature, capillary voltage, cone gas and desolvation gas were 350 °C, 3 Kv, 150 L/h and 600 L/h, respectively. Multiple reaction monitoring (MRM) was set to monitor the transitions from 416 > 239 (FM04) and 423 > 239 (IS). Chromatography separation was done with an Acquity UPLC BEH C8 column (2.1 × 50 mm, 1.7 µM). The mobile phase consisted of methanol + 0.1% formic acid (solvent B) and Milli-Q water + 0.1% formic acid (solvent A). The flow rate was 0.4 mL/min. The initial condition was 90% solvent A and 10% solvent B. After 1 min elution by the initial condition, a linear gradient was performed with solvent B increasing from 10% to 100% for 10 min. Afterwards, the mobile phase was restored to the initial condition for re-equilibration. The total analysis time was 20 min per injection.

P-gp = P-gp (Homo sapiens, UniProt P08183); assay: P-gp-ATPase activity (P-gp-Glo assay); format: biochemical; set-up: purchased Promega
Sequence of P-gp (P08183 whole entry): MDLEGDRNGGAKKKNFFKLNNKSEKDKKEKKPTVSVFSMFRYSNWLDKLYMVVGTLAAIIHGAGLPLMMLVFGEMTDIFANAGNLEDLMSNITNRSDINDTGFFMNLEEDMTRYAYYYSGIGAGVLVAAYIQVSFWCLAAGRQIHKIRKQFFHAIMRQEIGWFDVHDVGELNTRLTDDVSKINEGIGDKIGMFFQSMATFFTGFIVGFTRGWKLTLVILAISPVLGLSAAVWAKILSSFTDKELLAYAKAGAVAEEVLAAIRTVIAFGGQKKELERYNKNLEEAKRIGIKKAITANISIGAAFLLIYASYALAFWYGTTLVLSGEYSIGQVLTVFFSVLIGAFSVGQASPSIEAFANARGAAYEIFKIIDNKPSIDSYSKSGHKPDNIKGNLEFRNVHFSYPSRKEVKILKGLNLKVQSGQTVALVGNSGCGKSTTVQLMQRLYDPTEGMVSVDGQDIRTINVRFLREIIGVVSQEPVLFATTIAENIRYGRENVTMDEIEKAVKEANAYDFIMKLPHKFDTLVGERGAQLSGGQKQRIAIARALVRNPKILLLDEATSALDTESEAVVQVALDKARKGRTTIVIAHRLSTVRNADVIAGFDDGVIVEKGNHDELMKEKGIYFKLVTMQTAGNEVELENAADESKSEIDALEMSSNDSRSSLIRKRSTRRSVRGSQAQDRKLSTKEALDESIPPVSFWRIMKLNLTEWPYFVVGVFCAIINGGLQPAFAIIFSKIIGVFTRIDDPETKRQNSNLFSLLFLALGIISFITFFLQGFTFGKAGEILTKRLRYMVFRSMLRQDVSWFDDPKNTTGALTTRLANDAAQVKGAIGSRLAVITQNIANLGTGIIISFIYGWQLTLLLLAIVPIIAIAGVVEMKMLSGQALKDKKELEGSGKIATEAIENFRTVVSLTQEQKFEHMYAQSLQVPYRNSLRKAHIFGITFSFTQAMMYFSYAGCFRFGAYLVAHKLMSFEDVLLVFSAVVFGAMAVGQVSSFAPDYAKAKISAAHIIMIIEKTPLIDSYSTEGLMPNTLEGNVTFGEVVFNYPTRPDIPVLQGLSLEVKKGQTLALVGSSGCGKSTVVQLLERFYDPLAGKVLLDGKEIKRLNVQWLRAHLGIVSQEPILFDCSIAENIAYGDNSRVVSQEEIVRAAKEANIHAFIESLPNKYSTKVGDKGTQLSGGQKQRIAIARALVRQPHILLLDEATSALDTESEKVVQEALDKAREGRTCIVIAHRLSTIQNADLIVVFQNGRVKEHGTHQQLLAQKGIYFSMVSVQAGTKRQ
Procedure: N = 2–3 independent experiments. […] After incubation, the cells were lysed and spun down. […] N = 2–6 independent experiments. […] A 1% DMSO was a solvent control. […] N = 2–3 independent experiments.
P-gp-ATPase activity was measured by a P-gp-Glo assay system (Promega) with a human P-gp membrane, as reported previously. […] The reaction was initiated by the addition of MgATP and incubated at 37 °C for 1 h. After adding the ATP detection reagent, the sample was incubated at room temperature for 20 min before measuring the remaining ATP signal of luminescence by a Clariostar microplate reader (BMG Labtech). Vanadate-inhibitable P-gp ATPase activity was determined by calculating the luminescence signal in the samples with or without sodium vanadate.

[2] = Cytotoxicity assay (MTS, 3 days), LCC6; format: cell-based; conditions: human, LCC6 cells
Procedure: To each well of 96-well plate, 10,000 cells of LCC6, LCC6MDR or L929 were incubated with different concentrations of FM04 (0, 0.4, 1.2, 3.7, 11, 33 and 100 μM). The final volume in each well of 96-well plate was 100 μL and the plate was incubated for 3 days at 37 °C. The cell viability was determined using MTS assay as reported previously.

[3] = oral, PTX 20 mg/kg + FM04 45 mg/kg, relative to 20 mg/kg PTX alone
[4] = oral, PTX 70 mg/kg + FM04 22 mg/kg, relative to 70 mg/kg PTX alone
[5] = oral, PTX 70 mg/kg + FM04 45 mg/kg, relative to 70 mg/kg PTX alone

CC(=O)O[C@H]1C(=O)[C@@]2(C)[C@H]([C@H](OC(=O)c3ccccc3)[C@]3(O)C[C@H](OC(=O)[C@H](O)[C@@H](NC(=O)c4ccccc4)c4ccccc4)C(C)=C1C3(C)C)[C@]1(OC(C)=O)CO[C@@H]1C[C@@H]2O [PTX, paclitaxel]
IC50 (LCC6 cells; Homo sapiens, LCC-6, wild-type LCC6, no modulator, read-out: IC50 of anticancer drug, LCC6 + DMSO): 0.0021 ± 0.0005 µM
RF, LCC6 + DMSO (LCC6 cells; IC50 in LCC6MDR without FM04 / IC50 in LCC6): 61.7
RF, LCC6 + 1 μM FM04 (LCC6 cells; IC50 in LCC6MDR without FM04 / IC50 in LCC6 with FM04): 43.2
AUC ([1]; female, Balb/c, mouse, plasma, po, 20 mg/kg, oral, PTX 20 mg/kg + FM04 45 mg/kg): 9400 ng·h/mL
Cmax ([1]; female, Balb/c, mouse, plasma, po, 20 mg/kg, oral, PTX 20 mg/kg, FM04 0 mg/kg, read-out: PTX Cmax): 134 ng/mL
AUC ([1]; female, Balb/c, mouse, plasma, po, 20 mg/kg, PTX 20 mg/kg alone): 143 ng·h/mL
AUC ([1]; female, Balb/c, mouse, plasma, po, 70 mg/kg, oral, PTX 70 mg/kg + FM04 45 mg/kg): 30000 ng·h/mL
AUC(0-t) ([1]; female, Balb/c, mouse, plasma, po, 70 mg/kg, oral, PTX 70 mg/kg, FM04 0 mg/kg, read-out: PTX AUC(0-t) (converted)): 523 ng·h/mL
Cmax ([1]; female, Balb/c, mouse, plasma, po, 70 mg/kg, oral, PTX 70 mg/kg, FM04 0 mg/kg, read-out: PTX Cmax): 186 ng/mL
AUC ([1]; female, Balb/c, mouse, plasma, po, 70 mg/kg, PTX 70 mg/kg alone): 523 ng·h/mL
AUC(0-t) ([1]; female, Balb/c, mouse, plasma, po, oral, PTX 20 mg/kg + FM04 45 mg/kg, read-out: PTX AUC(0-t) (converted)): 9400 ng·h/mL
Cmax ([1]; female, Balb/c, mouse, plasma, po, oral, PTX 20 mg/kg + FM04 45 mg/kg, read-out: PTX Cmax): 3510 ng/mL
AUC ([1]; female, Balb/c, mouse, plasma, po, oral, PTX 70 mg/kg + FM04 22 mg/kg): 15500 ng·h/mL
AUC(0-t) ([1]; female, Balb/c, mouse, plasma, po, oral, PTX 70 mg/kg + FM04 22 mg/kg, read-out: PTX AUC(0-t) (converted)): 15500 ng·h/mL
Cmax ([1]; female, Balb/c, mouse, plasma, po, oral, PTX 70 mg/kg + FM04 22 mg/kg, read-out: PTX Cmax): 4950 ng/mL
AUC(0-t) ([1]; female, Balb/c, mouse, plasma, po, oral, PTX 70 mg/kg + FM04 45 mg/kg, read-out: PTX AUC(0-t) (converted)): 30000 ng·h/mL
Cmax ([1]; female, Balb/c, mouse, plasma, po, oral, PTX 70 mg/kg + FM04 45 mg/kg, read-out: PTX Cmax): 9760 ng/mL
Tmax ([1]; female, Balb/c, mouse, plasma, oral, PTX 20 mg/kg + FM04 45 mg/kg, read-out: PTX Tmax (converted)): 120 min
PTX AUC/Dose fold-change vs PTX alone [1, 3]: 66
PTX Cmax fold-change vs PTX alone [1, 3]: 26
PTX AUC/Dose fold-change vs PTX alone [1, 4]: 30
PTX Cmax fold-change vs PTX alone [1, 4]: 27
PTX AUC/Dose fold-change vs PTX alone [1, 5]: 57
PTX Cmax fold-change vs PTX alone [1, 5]: 53
oral absorption of PTX ([1]; oral PTX 70 mg/kg with FM04 22 mg/kg): 6.6%
oral absorption of PTX ([1]; oral PTX with FM04 45 mg/kg): 14%
oral absorption of PTX ([1]; oral PTX without FM04): 0.2%

O=c1cc(-c2ccc(OCCOCCNCc3ccccc3)cc2)oc2ccccc12 [FM04, 2-(4-(2-(2-(benzylamino)ethoxy)ethoxy)phenyl)-4H-chromen-4-one]
chemosensitization of wild-type LCC6 towards PTX, vinblastine and vincristine (LCC6 cells; FM04 1 μM): did not chemosensitize the wild-type LCC6 cells
P-gp ATPase activity, fold of basal (P-gp; 3 μM): 1.5 fold
P-gp ATPase activity, fold of basal (P-gp; 100 μM): 3.3 fold
AUC(0-t) ([1]; female, Balb/c, mouse, plasma, po, 100 mg/kg, oral, FM04 100 mg/kg, PTX 0 mg/kg, read-out: FM04 AUC(0-t) (converted)): 1820 ng·h/mL
Cmax ([1]; female, Balb/c, mouse, plasma, po, 100 mg/kg, oral, FM04 100 mg/kg, PTX 0 mg/kg, read-out: FM04 Cmax): 1020 ng/mL
Tmax ([1]; female, Balb/c, mouse, plasma, po, 100 mg/kg, oral, FM04 100 mg/kg, PTX 0 mg/kg, read-out: FM04 Tmax (converted)): 30 min
AUC(0-t) ([1]; female, Balb/c, mouse, plasma, po, oral, FM04 45 mg/kg + PTX 50 mg/kg, read-out: FM04 AUC(0-t) (converted)): 645 ng·h/mL
Cmax ([1]; female, Balb/c, mouse, plasma, po, oral, FM04 45 mg/kg + PTX 50 mg/kg, read-out: FM04 Cmax): 754 ng/mL
Tmax ([1]; female, Balb/c, mouse, plasma, po, oral, FM04 45 mg/kg + PTX 50 mg/kg, read-out: FM04 Tmax (converted)): 30 min
AUC(0-t) ([1]; female, Balb/c, mouse, plasma, po, oral, FM04 45 mg/kg + PTX 70 mg/kg, read-out: FM04 AUC(0-t) (converted)): 740 ng·h/mL
Cmax ([1]; female, Balb/c, mouse, plasma, po, oral, FM04 45 mg/kg + PTX 70 mg/kg, read-out: FM04 Cmax): 481 ng/mL
Tmax ([1]; female, Balb/c, mouse, plasma, po, oral, FM04 45 mg/kg + PTX 70 mg/kg, read-out: FM04 Tmax (converted)): 60 min
concentration at 720 min ([1]; female, Balb/c, mouse, plasma, FM04 100 mg/kg oral alone, at 720 min, read-out: minimum plasma concentration of FM04): 43 ng/mL
oral absorption of FM04 ([1]; FM04 100 mg/kg oral alone): < 0.005%
IC50 at 3 days [2]: 10.3 ± 0.2 µM

From article PMC9739180, “Discovery of a Flavonoid FM04 as a Potent Inhibitor to Reverse P-Glycoprotein-Mediated Drug Resistance in Xenografts and Improve Oral Bioavailability of Paclitaxel” (International Journal of Molecular Sciences, 2022)
